pIC50: −log10 of the molar value.
Test system: 993429-296-R-J1-PDC complex spheroid growth, percent test/control
Assay: Anticancer human tumor 993429-296-R-J1-PDC patient-derived uterine sarcoma cell line growth inhibition [Asc]
Conditions: for pIC50: curve of first compound; for viability, T/C: stronger effect = lower value
Method in brief: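 Spheroid model: tumor line + HUVEC + hMSC. Single agents and combinations; top conc. at/near clinical Cmax (10 microM if undetermined), half-log dilutions. DMSO stocks at 800-fold test concentration.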

[1] = second compound 0.1 µM, first compound 0.00316 µM
[2] = second compound 0.1 µM, first compound 0.01 µM
[3] = second compound 0.1 µM, first compound 0.0316 µM
[4] = second compound 0.1 µM, first compound 0.1 µM
[5] = second compound 0.1 µM, first compound 0.316 µM
[6] = second compound 0.1 µM, first compound 1 µM
[7] = second compound 0.316 µM, first compound 0.00316 µM
[8] = second compound 0.316 µM, first compound 0.01 µM
[9] = second compound 0.316 µM, first compound 0.0316 µM
[10] = second compound 0.316 µM, first compound 0.1 µM
[11] = second compound 0.316 µM, first compound 0.316 µM
[12] = second compound 0.316 µM, first compound 1 µM
[13] = second compound 1 µM, first compound 0.00316 µM
[14] = second compound 1 µM, first compound 0.01 µM
[15] = second compound 1 µM, first compound 0.0316 µM
[16] = second compound 1 µM, first compound 0.1 µM
[17] = second compound 1 µM, first compound 0.316 µM
[18] = second compound 1 µM, first compound 1 µM
[19] = second compound 3.16 µM, first compound 0.00316 µM
[20] = second compound 3.16 µM, first compound 0.01 µM
[21] = second compound 3.16 µM, first compound 0.0316 µM
[22] = second compound 3.16 µM, first compound 0.1 µM
[23] = second compound 3.16 µM, first compound 0.316 µM
[24] = second compound 3.16 µM, first compound 1 µM
[25] = second compound 10 µM, first compound 0.00316 µM
[26] = second compound 10 µM, first compound 0.01 µM
[27] = second compound 10 µM, first compound 0.0316 µM
[28] = second compound 10 µM, first compound 0.1 µM
[29] = second compound 10 µM, first compound 0.316 µM
[30] = second compound 10 µM, first compound 1 µM
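Further: spheroids exposed to compounds for seven days.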

SMILES | pIC50 (second compound 0.1 µM) | pIC50 (second compound 0.316 µM) | pIC50 (second compound 1 µM) | pIC50 (second compound 3.16 µM) | pIC50 (second compound 10 µM) | viability, T/C [1] [%] | viability, T/C [2] [%] | viability, T/C [3] [%] | viability, T/C [4] [%] | viability, T/C [7] [%] | viability, T/C [8] [%] | viability, T/C [9] [%] | viability, T/C [10] [%] | viability, T/C [13] [%] | viability, T/C [14] [%] | viability, T/C [15] [%] | viability, T/C [16] [%] | viability, T/C [19] [%] | viability, T/C [20] [%] | viability, T/C [21] [%] | also measured
CCN1CCN(Cc2ccc(Nc3ncc(F)c(-c4cc(F)c5nc(C)n(C(C)C)c5c4)n3)nc2)CC1 + Cc1c(S(C)(=O)=O)c(-c2cc(F)cc(N3CCN(c4ccc(NS(=O)(=O)c5ccc(NC(CCN6CCC(C(=O)OCCCP(=O)(O)O)CC6)CSc6ccccc6)c(S(=O)(=O)C(F)(F)F)c5)cc4)CC3)c2)c(-c2ccc(Cl)cc2)n1C(C)C | < 6.00 | 6.07 | 6.46 | > 8.50 | 6.33 | 70.2 | 81.9 | 64.3 | 60.6 | 54.2 | 55.5 | 63.5 | 64.7 | 48.1 | 52.4 | 49.5 | 58.7 | 37.3 | 45.3 | 46.6 | viability, T/C [5]: 85%; viability, T/C [6]: 50.7%; viability, T/C [11]: 64.3%; viability, T/C [12]: 32.5%; viability, T/C [17]: 55%; viability, T/C [18]: 16.5%; viability, T/C [22]: 41.8%; viability, T/C [23]: 38.7%; viability, T/C [24]: 16.2%; viability, T/C [25]: 70.5%; viability, T/C [26]: 67.4%; viability, T/C [27]: 71.2%; viability, T/C [28]: 76.9%; viability, T/C [29]: 67.4%; viability, T/C [30]: 14%
Cn1ncnc1[C@H]1c2n[nH]c(=O)c3cc(F)cc(c23)N[C@@H]1c1ccc(F)cc1 + Cc1c(S(C)(=O)=O)c(-c2cc(F)cc(N3CCN(c4ccc(NS(=O)(=O)c5ccc(NC(CCN6CCC(C(=O)OCCCP(=O)(O)O)CC6)CSc6ccccc6)c(S(=O)(=O)C(F)(F)F)c5)cc4)CC3)c2)c(-c2ccc(Cl)cc2)n1C(C)C | 8.01 | 8.33 | 8.42 | 9.00 | 8.00 | 64.5 | 46.7 | 34.1 | 18.5 | 50.3 | 37.3 | 33.3 | 14.2 | 50.1 | 35.8 | 22.7 | 10.6 | 44.3 | 28.9 | 9.8 | viability, T/C (second compound 0.1 µM, first compound 0.000316 µM): 66.9%; viability, T/C (second compound 0.1 µM, first compound 0.001 µM): 70.1%; viability, T/C (second compound 0.316 µM, first compound 0.000316 µM): 62.6%; viability, T/C (second compound 0.316 µM, first compound 0.001 µM): 73.7%; viability, T/C (second compound 1 µM, first compound 0.000316 µM): 68.8%; viability, T/C (second compound 1 µM, first compound 0.001 µM): 68.5%; viability, T/C (second compound 3.16 µM, first compound 0.000316 µM): 52.8%; viability, T/C (second compound 3.16 µM, first compound 0.001 µM): 48.5%; viability, T/C [22]: 10.8%; viability, T/C (second compound 10 µM, first compound 0.000316 µM): 103%; viability, T/C (second compound 10 µM, first compound 0.001 µM): 81%; viability, T/C [25]: 93.3%; viability, T/C [26]: 50.1%; viability, T/C [27]: 12.4%; viability, T/C [28]: 9.31%
O=C(c1ccc(F)c(F)c1Nc1ccc(I)cc1F)N1CC(O)([C@@H]2CCCCN2)C1 + Cc1c(S(C)(=O)=O)c(-c2cc(F)cc(N3CCN(c4ccc(NS(=O)(=O)c5ccc(NC(CCN6CCC(C(=O)OCCCP(=O)(O)O)CC6)CSc6ccccc6)c(S(=O)(=O)C(F)(F)F)c5)cc4)CC3)c2)c(-c2ccc(Cl)cc2)n1C(C)C | 8.12 | 8.02 | 8.35 | > 8.50 | 7.80 | 63 | 42.8 | 31.9 | 10.2 | 55.9 | 52.7 | 29.1 | 15.3 | 57.6 | 30.8 | 19.3 | 5.07 | 39.2 | 30.8 | 21.1 | viability, T/C [5]: 1.93%; viability, T/C [6]: 0.33%; viability, T/C [11]: 1.67%; viability, T/C [12]: 0.23%; viability, T/C [17]: 0.22%; viability, T/C [18]: 0.14%; viability, T/C [22]: 2.83%; viability, T/C [23]: 0.52%; viability, T/C [24]: 0.18%; viability, T/C [25]: 72%; viability, T/C [26]: 68.7%; viability, T/C [27]: 21.6%; viability, T/C [28]: 3.49%; viability, T/C [29]: 0.84%; viability, T/C [30]: 0.16%

From PubChem BioAssay AID1963446 (Molecular Pharmacology Branch, DTP, NCI, 2024)
